In one assay the test system is sebum secretion. Particulars: in vivo; cited from earlier work.
Assay [1] has as its system sebaceous glands of Syrian hamster ears. The assay is described as follows: Syrian hamster ear model of sebum secretion, HPLC of cholesterol ester and wax ester. Particulars: topical 1 w/v %, 4 weeks; for % Reduction in CE, change vs. relevant vehicle control: cholesterol ester; for % Reduction in CE, change vs. relevant vehicle control / % Reduction in WE, change vs. relevant vehicle control: twice daily, five days a week, right ear, negative = increase; for Sum CE + WE, change vs. relevant vehicle control: summation of % reduction in CE and in WE; for % Reduction in WE, change vs. relevant vehicle control: wax ester. Type of assay: in vivo. How it is done: Luderschmidt et al describes an animal model for testing whether compounds are capable of modulating sebum secretion. Arch. Derm. Res. 258, 185-191 (1977). This model uses Syrian hamsters, whose ears contain sebaceous glands. Compounds can be administered to these animals to determine if a test agent is capable of modulating sebum production
Testing for sebum inhibition was carried out in the following manner. Male Syrian hamsters aged 9 to 10 weeks were introduced into the laboratory environment and acclimated for 2 weeks prior to use in the study. Each group consisted of 5 animals and were run in parallel with vehicle and positive controls. Prior to administration, 10 mg of each compound was dissolved in 1 mL of Universal solvent (ethanol/propylene glycol (70/30% v/v) to achieve a final concentration of 1 w/v %.
Animals were dosed topically twice daily, five days a week, for 4 weeks. Each dose consisted of 25 micro liters of vehicle control or drug. The dose was applied to the ventral surfaces of both the right and left ears. All animals were sacrificed approximately 18-24 hours after the final dose. The right ears were collected from each animal and used for sebum analysis.
The ears were prepped for HPLC analysis in the following manner. One 8 mm distal biopsy punch was taken, just above the anatomical “V” mark in the ear to normalize the sample area. The punch was pulled apart. The ventral biopsy surface (the area where the topical dose was directly applied to the sebaceous glands) was retained for testing and the dorsal surface of the biopsy punch was discarded.
Tissue samples were blown with N2 gas and stored at −80° C. under nitrogen until HPLC analysis. In addition to ear samples, an aliquot of each drug and vehicle (at least 250 ul) was also stored at −80° C. for inclusion in the HPLC analysis.
HPLC analysis was carried out on an extract of the tissue sample. Tissue samples were contacted with 3 ml of solvent (a 4:1 admixture of 2,2,4-trimethylpentane and isopropyl alcohol). The mixture was shaken for 15 minutes and stored overnight at room temperature, protected from light. The next morning 1 milliliter of water was added to the sample and shaken for 15 minutes. The sample was then centrifuged at approximately 1500 rpm for 15 minutes. Two ml of the organic phase (top layer) was transferred to a glass vial, dried at 37° C., under nitrogen, for approximately 1 hour, and then lyophilized for approximately 48 hours. The samples were then removed from the lyophilizer and each vial was reconstituted with 600 μl of solvent A (trimethylpentane/tetrahydrofuran (99:1). The samples were then recapped and vortexed for 5 minutes.
200 μl of each sample was then transferred to a pre-labeled 200 μl HPLC vial with 200 μL glass inserts. The HPLC vials were placed in the autosampler tray for the Agilent 1100 series HPLC unit. The Agilent 1100 HPLC system consisted of a thermostated autosampler, a quarternary pump, a column heater, and an A/D interface module. All components were controlled by Agilent ChemStation software. A Waters Spherisorb S3W 4.6×100 mm analytical column was maintained at 30° C. by the Agilent column heater unit. The HPLC autosampler was programmed to maintain the sample temperature at 20° C. throughout the run.
10 uL of each sample was injected in triplicate into the column. Two solvents were used for the solvent gradient. Solvent A was an admixture of trimethylpentane and tetrahydrofuran (99:1). Solvent B was ethylacetate. The gradient utilized is described in the table below: […]
The Sedex 75 Evaporative Light Scattering Detector (ELSD) was operated at 45° C. with a gain of 5, and N2 pressure maintained at 3.1 bar. Analog signal obtained by the instrument was sent to the Agilent A/D interface module where it was converted to a digital output. The conversion was based on a 10000 mAU/volt set point and the data rate was set at 10 Hz (0.03 min). […]

Turning to `CC1=C(/C=C/C(C)=C/C=C/C(C)=C\C(=O)O)C(C)(C)CCC1` [Accutane, isotretinoin], the “reduction of sebum secretion” value in the assay on sebum secretion was “up to 90%”.

For `CC(C)c1cccc(C(C)C)c1NC(=O)NCC1(c2ccccc2)CC1` [Compound 28], in assay [1], the “% Reduction in CE, change vs. relevant vehicle control” value was 0%; the “Sum CE + WE, change vs. relevant vehicle control” value is given as −8%; the “% Reduction in WE, change vs. relevant vehicle control” value is reported as −8%.

`CC(C)c1cccc(C(C)C)c1NC(=O)CC(=O)N(CCC#N)Cc1ccccc1` [Compound 6]: in assay [1], the “% Reduction in CE, change vs. relevant vehicle control” value was determined as 23%; the “Sum CE + WE, change vs. relevant vehicle control” value is given as 22%; the “% Reduction in WE, change vs. relevant vehicle control” value was −1%.

Turning to `CC(=O)OC(C(=O)N(CC(=O)Nc1c(C(C)C)cccc1C(C)C)Cc1ccccc1)c1ccccc1` (stereo not shown) [Compound 29], in assay [1], the “% Reduction in CE, change vs. relevant vehicle control” value is reported as 19%; the “Sum CE + WE, change vs. relevant vehicle control” value was found to be 30%; the “% Reduction in WE, change vs. relevant vehicle control” value was determined as 11%.

Source of the values: patent US8409595B2, “Method for decreasing sebum production” (Medicis Pharmaceutical Corporation, priority 2003, dated 2013).
